The source made the active and inactive calls. No cut-off for these calls is given here.
Columns and labels:
[1] = target: von Hippel-Lindau disease tumor suppressor/Focal adhesion kinase 1 (Homo sapiens, UniProt Q05397+P40337); test: Protac activity at VHL/PTK2 in human A549 cells assessed as induction of PTK2 degradation at 1 to 100000 nM incubated for 18 hrs by protein capillary electrophoresis method; assay type: cell-based; details: dose 1-100000 nM
cells [2] = details: Homo sapiens, HuH-1, 144 h, read-out: pIC50 (converted)
Description: Antiproliferative activity against human HuH-1 cells incubated for 6 days by CellTiter-Glo luminescent cell viability assay

SNU-387 = test: cells; details: Homo sapiens, SNU-387, 144 h, read-out: pIC50 (converted)
Description: Antiproliferative activity against human SNU-387 cells incubated for 6 days by CellTiter-Glo luminescent cell viability assay

SNU-398 = test: cells; details: Homo sapiens, SNU-398, 144 h, read-out: pIC50 (converted)
Description: Antiproliferative activity against human SNU-398 cells incubated for 6 days by CellTiter-Glo luminescent cell viability assay

cells [3] = details: Homo sapiens, HLF1, 144 h, read-out: pIC50 (converted)
Description: Antiproliferative activity against human HLF1 cells incubated for 6 days by CellTiter-Glo luminescent cell viability assay

HepG2 = test: cells; details: Homo sapiens, HepG2, 144 h, read-out: pIC50 (converted)
Description: Antiproliferative activity against human HepG2 cells incubated for 6 days by CellTiter-Glo luminescent cell viability assay

cells [4] = details: Homo sapiens, Hep3B, 144 h, read-out: pIC50 (converted)
Description: Antiproliferative activity against human Hep3B2.1-7 cells incubated for 6 days by CellTiter-Glo luminescent cell viability assay

SK-HEP1 = test: cells; details: Homo sapiens, SK-HEP1, 144 h, read-out: pIC50 (converted)
Description: Antiproliferative activity against human SK-HEP1 cells incubated for 6 days by CellTiter-Glo luminescent cell viability assay

SNU-423 = test: cells; details: Homo sapiens, SNU-423, 144 h, read-out: pIC50 (converted)
Description: Antiproliferative activity against human SNU-423 cells incubated for 6 days by CellTiter-Glo luminescent cell viability assay

HLE = test: cells; details: Homo sapiens, 144 h, read-out: pIC50 (converted)
Description: Antiproliferative activity against human HLE cells incubated for 6 days by CellTiter-Glo luminescent cell viability assay

Huh-7 = test: cells; details: Homo sapiens, Huh-7, 144 h, read-out: pIC50 (converted)
Description: Antiproliferative activity against human Huh-7 cells incubated for 6 days by CellTiter-Glo luminescent cell viability assay

HuCCT-1 = test: cells; details: Homo sapiens, HuCCT-1, 144 h, read-out: pIC50 (converted)
Description: Antiproliferative activity against human HuCCT-1 cells incubated for 6 days by CellTiter-Glo luminescent cell viability assay

Sequence of von Hippel-Lindau disease tumor suppressor/Focal adhesion kinase 1 (P40337 whole entry partner): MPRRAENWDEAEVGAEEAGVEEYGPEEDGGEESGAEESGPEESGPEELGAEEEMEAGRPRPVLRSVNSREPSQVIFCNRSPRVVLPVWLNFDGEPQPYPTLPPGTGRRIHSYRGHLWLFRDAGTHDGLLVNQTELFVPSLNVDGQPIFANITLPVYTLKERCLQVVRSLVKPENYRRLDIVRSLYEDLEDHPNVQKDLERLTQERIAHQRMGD
Sequence of von Hippel-Lindau disease tumor suppressor/Focal adhesion kinase 1 (Q05397 2-1052 limits assumed): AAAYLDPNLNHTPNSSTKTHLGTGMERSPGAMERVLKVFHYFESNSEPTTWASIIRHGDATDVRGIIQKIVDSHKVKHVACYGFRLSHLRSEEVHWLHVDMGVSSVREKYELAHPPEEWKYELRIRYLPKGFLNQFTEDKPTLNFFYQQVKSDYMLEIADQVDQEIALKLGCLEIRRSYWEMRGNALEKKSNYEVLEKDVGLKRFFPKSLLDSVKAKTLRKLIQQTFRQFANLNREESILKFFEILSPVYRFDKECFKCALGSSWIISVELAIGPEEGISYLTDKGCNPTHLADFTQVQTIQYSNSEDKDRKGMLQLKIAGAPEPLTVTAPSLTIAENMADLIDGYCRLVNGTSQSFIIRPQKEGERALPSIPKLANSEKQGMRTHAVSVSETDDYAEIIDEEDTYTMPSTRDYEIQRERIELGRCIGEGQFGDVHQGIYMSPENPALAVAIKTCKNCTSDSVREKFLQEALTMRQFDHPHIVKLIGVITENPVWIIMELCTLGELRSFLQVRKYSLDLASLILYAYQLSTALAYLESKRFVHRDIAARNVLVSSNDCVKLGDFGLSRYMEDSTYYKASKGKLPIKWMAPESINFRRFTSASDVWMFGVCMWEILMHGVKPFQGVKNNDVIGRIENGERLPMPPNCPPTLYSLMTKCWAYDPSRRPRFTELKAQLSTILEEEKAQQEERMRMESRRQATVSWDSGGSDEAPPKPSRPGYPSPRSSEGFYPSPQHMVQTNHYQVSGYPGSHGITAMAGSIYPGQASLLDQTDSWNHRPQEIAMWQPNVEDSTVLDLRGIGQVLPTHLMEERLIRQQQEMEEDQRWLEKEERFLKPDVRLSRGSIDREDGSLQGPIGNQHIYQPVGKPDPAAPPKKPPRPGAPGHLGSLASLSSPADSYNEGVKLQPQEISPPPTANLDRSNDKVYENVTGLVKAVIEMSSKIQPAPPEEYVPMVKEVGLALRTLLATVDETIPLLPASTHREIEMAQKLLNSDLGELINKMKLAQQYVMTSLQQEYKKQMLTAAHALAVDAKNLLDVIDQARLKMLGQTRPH

Structure (SMILES) | Activity [1] | IC50 (cells [2]) [µM] | IC50 (SNU-387) [µM] | IC50 (SNU-398) [µM] | IC50 (cells [3]) [µM] | IC50 (HepG2) [µM] | IC50 (cells [4]) [µM] | IC50 (SK-HEP1) [µM] | IC50 (SNU-423) [µM] | IC50 (HLE) [µM] | IC50 (Huh-7) [µM] | IC50 (HuCCT-1) [µM]
COc1cc(C(=O)NCCOCCOCCOCC(=O)N[C@H](C(=O)N2C[C@@H](O)C[C@H]2C(=O)NCc2ccc(-c3scnc3C)cc2)C(C)(C)C)ccc1Nc1ncc(C(F)(F)F)c(Oc2cccc3c2C(=O)CC3)n1 | inactive |  |  |  |  |  |  |  |  |  |  | 
COc1cc(C(=O)NC2CCN(C)CC2)ccc1Nc1ncc(C(F)(F)F)c(Oc2cccc3c2C(=O)CC3)n1 |  | 3.98 | 6.31 | 6.31 | 3.98 | 3.16 | 5.01 | 6.31 | 3.98 | 7.94 | 3.98 | 6.31
